The record followed here is patent publication US20050009840A1 (SUGEN, INC., priority 2003, published 2005).

What is called IC50 is the concentration at which inhibition is half-maximal.

T1 sequence (P08581 1078-1345 limits assumed): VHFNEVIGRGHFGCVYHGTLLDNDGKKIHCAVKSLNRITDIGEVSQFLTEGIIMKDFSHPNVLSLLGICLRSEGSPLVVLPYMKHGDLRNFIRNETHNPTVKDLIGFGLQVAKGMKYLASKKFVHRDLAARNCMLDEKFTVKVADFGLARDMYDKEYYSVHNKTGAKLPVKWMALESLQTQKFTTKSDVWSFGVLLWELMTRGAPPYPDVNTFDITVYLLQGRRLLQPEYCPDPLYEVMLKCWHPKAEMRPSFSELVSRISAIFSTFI

This experiment addresses T1, Met kinase domain (GST fusion protein) (Homo sapiens, UniProt P08581).
T1 construct: Purified GST fusion protein containing the Met kinase domain
Put plainly: Met transphosphorylation assay (ELISA, poly(glu-tyr) substrate).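 Note: Cell-free ELISA with plate-bound poly(Glu:Tyr 4:1) phosphorylated by GST-fused Met kinase domain plus ATP and Mn2+, phosphotyrosine detected by anti-phosphotyrosine antibody with HRP and ABTS read-out.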 In kind it is biochemical. The settings on record: read-out: Met IC50. (In general: In an ELISA, binding on a coated surface is turned into a signal by an enzyme label.)
On to `CC(Oc1nc(-c2cccc(C(=O)NCCN3CCOCC3)c2)cnc1N)c1c(Cl)ccc(F)c1Cl` (centres unmarked) [II-134, 3-{5-Amino-6-[1-(2,6-dichloro-3-fluoro-phenyl)-ethoxy]-pyrazin-2-yl}-N-(2-morpholin-4-yl-ethyl)-benzamide], for which the IC50 was determined as 210 nM.
On to `CC(Oc1nc(-c2cccc(C(=O)NCCCN3CCOCC3)c2)cnc1N)c1c(Cl)ccc(F)c1Cl` (centres unmarked) [II-135, 3-{5-Amino-6-[1-(2,6-dichloro-3-fluoro-phenyl)-ethoxy]-pyrazin-2-yl}-N-(3-morpholin-4-yl-propyl)-benzamide], for which the IC50 was determined as 260 nM.
On to `CC(Oc1nc(-c2cccc(C(=O)N3CCC(NC4CC4)CC3)c2)cnc1N)c1c(Cl)ccc(F)c1Cl` (centres unmarked) [II-136, (3-{5-Amino-6-[1-(2,6-dichloro-3-fluoro-phenyl)-ethoxy]-pyrazin-2-yl}-phenyl)-(4-cyclopropylamino-piperidin-1-yl)-methanone], for which the IC50 stood at 150 nM.
As for `CC(Oc1nc(-c2cccc(C(=O)NC[C@H](O)CN3CCOCC3)c2)cnc1N)c1c(Cl)ccc(F)c1Cl` (stereo partly drawn) [II-137, 3-{5-Amino-6-[1-(2,6-dichloro-3-fluoro-phenyl)-ethoxy]-pyrazin-2-yl}-N-((S)-2-hydroxy-3-morpholin-4-yl-propyl)-benzamide], the IC50 worked out at 300 nM.
Take `CC(Oc1nc(-c2cccc(C(=O)NC[C@@H](O)CN3CCCC3)c2)cnc1N)c1c(Cl)ccc(F)c1Cl` (stereo partly drawn) [II-138, 3-{5-Amino-6-[1-(2,6-dichloro-3-fluoro-phenyl)-ethoxy]-pyrazin-2-yl}-N-((R)-2-hydroxy-3-pyrrolidin-1-yl-propyl)-benzamide]: the IC50 turned out to be 130 nM.
The same measure for `CC(Oc1cc(-c2cccc(C(=O)N3CCC(N4CCCC4)CC3)c2)cnc1N)c1c(Cl)ccc(F)c1Cl` (centres unmarked) [II-139, (3-{6-Amino-5-[1-(2,6-dichloro-3-fluoro-phenyl)-ethoxy]-pyridin-3-yl}-phenyl)-(4-pyrrolidin-1-yl-piperidin-1-yl)-methanone]: 71 nM; for `CCN(CC)CCS(=O)(=O)Nc1ccc(-c2cnc(N)c(OC(C)c3c(Cl)ccc(F)c3Cl)n2)cc1` (centres unmarked) [II-140, 2-Diethylamino-ethanesulfonic acid (4-{5-amino-6-[1-(2,6-dichloro-3-fluoro-phenyl)-ethoxy]-pyrazin-2-yl}-phenyl)-amide]: 350 nM; for `CC(Oc1nc(-c2ccc(NS(=O)(=O)CCN3CCC(O)CC3)cc2)cnc1N)c1c(Cl)ccc(F)c1Cl` (centres unmarked) [II-141, 2-(4-Hydroxy-piperidin-1-yl)-ethanesulfonic acid (4-{5-amino-6-[1-(2,6-dichloro-3-fluoro-phenyl)-ethoxy]-pyrazin-2-yl}-phenyl)-amide]: 210 nM.
For the molecule `CC(Oc1nc(-c2ccc(NS(=O)(=O)CCN(C)C)cc2)cnc1N)c1c(Cl)ccc(F)c1Cl` (centres unmarked) [II-142, 2-Dimethylamino-ethanesulfonic acid (4-{5-amino-6-[1-(2,6-dichloro-3-fluoro-phenyl)-ethoxy]-pyrazin-2-yl}-phenyl)-amide], the IC50 is 220 nM.
As for `CC(Oc1nc(-c2ccc(NS(=O)(=O)CCN3CC[C@@H](O)C3)cc2)cnc1N)c1c(Cl)ccc(F)c1Cl` (stereo partly drawn) [II-143, 2-((R)-3-Hydroxy-pyrrolidin-1-yl)-ethanesulfonic acid (4-{5-amino-6-[1-(2,6-dichloro-3-fluoro-phenyl)-ethoxy]-pyrazin-2-yl}-phenyl)-amide], the 50% inhibitory concentration (IC50) was 190 nM.
Turning to `CC(Oc1nc(-c2ccc(NS(=O)(=O)CCN3CCCC3)cc2)cnc1N)c1c(Cl)ccc(F)c1Cl` (centres unmarked) [II-144, 2-Pyrrolidin-1-ylethanesulfonic acid (4-{5-amino-6-[1-(2,6-dichloro-3-fluoro-phenyl)-ethoxy]-pyrazin-2-yl}-phenyl)-amide], the IC50 stood at 360 nM.
To `CC(Oc1nc(-c2ccc(C(=O)O)cc2)cnc1N)c1c(Cl)ccc(F)c1Cl` (centres unmarked) [II-145, 4-{5-Amino-6-[1-(2,6-dichloro-3-fluoro-phenyl)-ethoxy)-pyrazin-2-yl)benzoic acid] belongs 1560 nM; to `CC(Oc1nc(-c2ccc(C(=O)NC[C@@H](O)CN3CCCC3)cc2)cnc1N)c1c(Cl)ccc(F)c1Cl` (stereo partly drawn) [II-146, 4-{5-Amino-6-[1-(2,6-dichloro-3-fluoro-phenyl)-ethoxy]-pyrazin-2-yl}-N-((R)-2-hydroxy-3-pyrrolidin-1-yl-propyl)-benzamide], 150 nM.
Turning to `CC(Oc1nc(-c2ccc(C(=O)N3CCC(NC4CC4)CC3)cc2)cnc1N)c1c(Cl)ccc(F)c1Cl` (centres unmarked) [II-147, (4-{5-Amino-6-[1-(2,6-dichloro-3-fluoro-phenyl)-ethoxy]-pyrazin-2-yl}-phenyl)-(4-cyclopropylamino-piperidin-1-yl)-methanone], the 50% inhibitory concentration (IC50) amounted to 130 nM.
Take `CC(Oc1nc(-c2ccc(C(=O)NC[C@H](O)CN3CCCC3)cc2)cnc1N)c1c(Cl)ccc(F)c1Cl` (some centres unmarked) [II-148]: the IC50 is 120 nM.
On to `CC(Oc1nc(-c2ccc(C(=O)NC[C@@H](O)CN3CCOCC3)cc2)cnc1N)c1c(Cl)ccc(F)c1Cl` (stereo partly drawn) [II-149, 4-{5-Amino-6-[1-(2,6-dichloro-3-fluoro-phenyl)-ethoxy]-pyrazin-2-yl}-N-((R)-2-hydroxy-3-morpholin-4-yl-propyl)-benzamide], for which the IC50 was determined as 130 nM.
On to `CC(Oc1nc(-c2ccc(C(=O)NC3CCN(C)CC3)cc2)cnc1N)c1c(Cl)ccc(F)c1Cl` (centres unmarked) [II-150, 4-{5-Amino-6-[1-(2,6-dichloro-3-fluoro-phenyl)-ethoxy]-pyrazin-2-yl}-N-(1-methyl-piperidin-4-yl)-benzamide], for which the IC50 is 68 nM.
Take `CC(Oc1nc(-c2ccc(C(=O)N3CCC[C@H]3CN3CCCC3)cc2)cnc1N)c1c(Cl)ccc(F)c1Cl` (stereo partly drawn) [II-151, (4-{5-Amino-6-[1-(2,6-dichloro-3-fluoro-phenyl)-ethoxy]-pyrazin-2-yl}-phenyl)-((S)-2-pyrrolidin-1-ylmethyl-pyrrolidin-1-yl)-methanone]: the IC50 was 180 nM.
`CC(Oc1nc(-c2ccc(C(=O)N3CCC(N4CCCC4)CC3)cc2)cnc1N)c1c(Cl)ccc(F)c1Cl` (centres unmarked) [II-152, (4-{5-Amino-6-[1-(2,6-dichloro-3-fluoro-phenyl)-ethoxy]-pyrazin-2-yl}-phenyl)-(4-pyrrolidin-1-yl-piperidin-1-yl)-methanone]: the IC50 worked out at 110 nM.
Consider `CC(Oc1nc(-c2ccc(C(=O)NCCN3CCOCC3)cc2)cnc1N)c1c(Cl)ccc(F)c1Cl` (centres unmarked) [II-153, 4-{5-Amino-6-[1-(2,6-dichloro-3-fluoro-phenyl)-ethoxy]-pyrazin-2-yl}-N-(2-morpholin-4-yl-ethyl)-benzamide], for which the 50% inhibitory concentration (IC50) came to 102 nM.
Take `CC(Oc1nc(-c2ccc(C(=O)N3CCN(C)CC3)cc2)cnc1N)c1c(Cl)ccc(F)c1Cl` (centres unmarked) [II-154, (4-{5-Amino-6-[1-(2,6-dichloro-3-fluoro-phenyl)-ethoxy]-pyrazin-2-yl}-phenyl)-(4-methyl-piperazin-1-yl)-methanone]: the IC50 is 160 nM.
As for `CC(Oc1nc(-c2ccc(C(=O)N3C[C@@H](C)N[C@@H](C)C3)cc2)cnc1N)c1c(Cl)ccc(F)c1Cl` (stereo partly drawn) [II-155, (4-{5-Amino-6-[1-(2,6-dichloro-3-fluoro-phenyl)-ethoxy]-pyrazin-2-yl}-phenyl)-((3R,5S)-3,5-dimethyl-piperazin-1-yl)-methanone], the IC50 was 95 nM.
On to `CC(Oc1nc(-c2ccc(C(=O)N3CCC(N4CCCC4)CC3)cc2)cnc1N)c1c(Cl)cccc1Cl` (centres unmarked) [II-157, (4-{5-Amino-6-[1-(2,6-dichloro-phenyl)-ethoxy]-pyrazin-2-yl}-phenyl)-(4-pyrrolidin-1-yl-piperidin-1-yl)-methanone], for which the 50% inhibitory concentration (IC50) is 160 nM.
`CC(Oc1nc(-c2ccc(C(=O)NCCN3CCOCC3)cc2)cnc1N)c1c(Cl)cccc1Cl` (centres unmarked) [II-158, 4-{5-Amino-6-[1-(2,6-dichloro-phenyl)-ethoxy]-pyrazin-2-yl}-N-(2-morpholin-4-yl-ethyl)-benzamide]: the IC50 turned out to be 320 nM.
The same measure for `CC(Oc1nc(-c2ccc(C(=O)N3C[C@@H](C)N[C@@H](C)C3)cc2)cnc1N)c1c(Cl)cccc1Cl` (stereo partly drawn) [II-159, (4-{5-Amino-6-[1-(2,6-dichloro-phenyl)-ethoxy]-pyrazin-2-yl}-phenyl)-((3R,5S)-3,5-dimethyl-piperazin-1-yl)-methanone]: 140 nM.
The same measure for `CC(Oc1nc(-c2ccc(C(=O)NC3CCN(C)CC3)cc2)cnc1N)c1c(Cl)cccc1Cl` (centres unmarked) [II-160, 4-{5-Amino-6-[1-(2,6-dichloro-phenyl)-ethoxy]-pyrazin-2-yl}-N-(1-methyl-piperidin-4-yl)-benzamide]: 120 nM; for `CC(Oc1nc(-c2ccc(C(=O)N3CCC[C@@H]3CN3CCCC3)cc2)cnc1N)c1c(Cl)cccc1Cl` (stereo partly drawn) [II-161, (4-{5-Amino-6-[1-(2,6-dichloro-phenyl)-ethoxy]-pyrazin-2-yl}-phenyl)-((R)-2-pyrrolidin-1-ylmethyl-pyrrolidin-1-yl)-methanone]: 160 nM; for `CC(Oc1nc(-c2ccc(C(=O)N3CCC[C@H]3CN3CCCC3)cc2)cnc1N)c1c(Cl)cccc1Cl` (stereo partly drawn) [II-162, (4-{5-Amino-6-[1-(2,6-dichloro-phenyl)-ethoxy]-pyrazin-2-yl}-phenyl)-((S)-2-pyrrolidin-1-ylmethyl-pyrrolidin-1-yl)-methanone]: 140 nM.
Take `CC(Oc1nc(-c2ccc(C(=O)N3CCN(C)CC3)cc2)cnc1N)c1c(Cl)cccc1Cl` (centres unmarked) [II-163, (4-{5-Amino-6-[1-(2,6-dichloro-phenyl)-ethoxy]-pyrazin-2-yl}-phenyl)-(4-methyl-piperazin-1-yl)-methanone]: the IC50 turned out to be 150 nM.
Take `CC(Oc1nc(-c2ccc(C(=O)N3CC[C@@H](N)C3)cc2)cnc1N)c1c(Cl)cccc1Cl` (stereo partly drawn) [II-164, (4-{5-Amino-6-[1-(2,6-dichloro-phenyl)-ethoxy]-pyrazin-2-yl}-phenyl)-((R)-3-aminopyrrolidin-1-yl)-methanone]: the IC50 turned out to be 150 nM.
Turning to `CC(Oc1nc(-c2ccc(C(=O)N3CC[C@H](N)C3)cc2)cnc1N)c1c(Cl)cccc1Cl` (stereo partly drawn) [II-165, (4-{5-Amino-6-[1-(2,6-dichloro-phenyl)-ethoxy]-pyrazin-2-yl}-phenyl)-((S)-3-aminopyrrolidin-1-yl)-methanone hydrogen chloride], the half-maximal inhibitory concentration (IC50) came out at 100 nM.
As to `CC(Oc1nc(-c2ccc(C(=O)NCCN3CCCC3)cc2)cnc1N)c1c(Cl)cccc1Cl` (centres unmarked) [II-166, 4-{5-Amino-6-[1-(2,6-dichloro-phenyl)-ethoxy]-pyrazin-2-yl}-N-(2-pyrrolidin-1-yl-ethyl)-benzamide], the half-maximal inhibitory concentration (IC50) amounted to 110 nM.
